Results on 32 compounds are retold here after patent publication US20090209536A1, “AMINOQUINAZOLINE CANNABINOID RECEPTOR MODULATORS FOR TREATMENT OF DISEASE” (KALYPSYS, INC., priority 2007, published 2009).

SMILES strings stand for the structures. Like-named read-outs stand apart in the source and are kept apart here.

In test [1] the target is T1, human cannabinoid receptor type 2 (Homo sapiens, UniProt P34972).
T1 construct: expressed in transfected cells; membrane preparation
Briefly: Human CB2 Radioligand Binding Assay. As to conditions: membranes from stably transfected CHO CB2 cells. Summed up: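 Test compounds (10 uM final, or dose-response) competed with [3H]CP-55,940, used at the Kd determined per membrane lot, for binding to stable human CB2-CHO membranes over 90 min at 30° C in pH 7.4 Tris/EGTA/MgCl2/BSA buffer. GF/C filtration then scintillation counting; 100 nM CP-55,940 defined 100% efficacy.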

For test [2], the target named is T2, human cannabinoid receptor type 1 (Homo sapiens, UniProt P21554).
T2 construct: purchased Perkin Elmer RBHCB1M; host or cells: HEK 293 EBNA cells
The test can be described thus: Human CB1 Radioligand Binding Assay (basis of selectivity, CB2 vs. CB1). As to conditions: CB1: HEK 293 EBNA cells expressing human CB1; CB2: CHO CB2 membranes. The procedure: 2. Human CB1 Radioligand Binding Assay
The incubation buffer was composed of 50 mM Tris-HCl pH 7.4, 2.5 mM EDTA, 5 mM MgCl2, 5.0 mg/ml fatty acid free BSA and the wash buffer was composed of 50 mM Tris-HCl pH 7.4, 2.5 mM EDTA, 5 mM MgCl2, 0.5 mg/ml fatty acid free BSA.

Where [3] appears, read: competition with [3H] CP-55,940, read-out: CB2 Ligand Binding Asssay EC50.
Setting [4] is: CB2 Ligand Binding Asssay EC50, competition with [3H] CP-55,940.

T2 sequence (P21554 whole entry): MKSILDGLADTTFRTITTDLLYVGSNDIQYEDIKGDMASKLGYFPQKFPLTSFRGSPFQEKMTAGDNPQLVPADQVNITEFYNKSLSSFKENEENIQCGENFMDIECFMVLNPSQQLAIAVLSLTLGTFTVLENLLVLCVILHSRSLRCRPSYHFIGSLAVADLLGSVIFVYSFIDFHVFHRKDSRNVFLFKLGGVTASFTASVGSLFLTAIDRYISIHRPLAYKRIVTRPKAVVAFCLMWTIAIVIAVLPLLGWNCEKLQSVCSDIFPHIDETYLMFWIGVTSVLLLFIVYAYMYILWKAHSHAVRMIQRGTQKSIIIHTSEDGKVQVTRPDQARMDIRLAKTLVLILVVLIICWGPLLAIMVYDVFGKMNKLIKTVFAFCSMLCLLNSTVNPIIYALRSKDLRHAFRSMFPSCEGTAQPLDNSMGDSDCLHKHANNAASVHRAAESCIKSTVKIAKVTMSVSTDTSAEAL
T1 sequence (P34972 whole entry): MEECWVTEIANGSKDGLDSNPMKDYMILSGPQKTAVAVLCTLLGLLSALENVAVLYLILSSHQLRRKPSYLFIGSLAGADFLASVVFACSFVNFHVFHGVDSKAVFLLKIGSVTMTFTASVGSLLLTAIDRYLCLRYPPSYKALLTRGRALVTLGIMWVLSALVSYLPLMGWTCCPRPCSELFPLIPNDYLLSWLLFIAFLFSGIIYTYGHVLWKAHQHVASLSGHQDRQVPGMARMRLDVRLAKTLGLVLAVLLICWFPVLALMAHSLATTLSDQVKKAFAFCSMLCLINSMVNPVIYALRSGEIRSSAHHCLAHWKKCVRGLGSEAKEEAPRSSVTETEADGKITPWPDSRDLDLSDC

One may read the EC50 as the concentration giving half of the maximal effect. Consider `CC(C)(C)c1ccc(-c2nc(Nc3ccccc3Cl)c3ccccc3n2)cc1` [Example 133, 2-(4-tert-Butylphenyl)quinazolin-4-yl 2-chlorophenylamine], for which, in test [1] (setting [3]), the EC50 was above 1000 nM. In test [2], the “Selectivity, CB2 vs. CB1” value is on record as “− (− indicates ≦ 10−fold)”.
As to `CC(C)(C)c1ccc(-c2nc(N3CCCC3)c3ccccc3n2)cc1` [Example 110, 2-(4-tert-Butylphenyl)-4-(pyrrolidin-1-yl)quinazoline], in test [1] (setting [3]), the EC50 is below 1000 nM. Further, the “Selectivity, CB2 vs. CB1” value in test [2] is “+ (+ indicates > 10−fold)”.
For the compound `CN1CCN(c2nc(C3CCCCC3)nc3cc(Cl)ccc23)CC1` [Example 166, 7-Chloro-2-cyclohexyl-4-(4-methylpiperazin-1-yl)quinazoline], the EC50 in test [1] (setting [3]) is below 1000 nM. Besides, the “Selectivity, CB2 vs. CB1” value in test [2] is given as “+ (+ indicates > 10−fold)”.
The corresponding values for `O=C(c1ncc[nH]1)N1CCN(c2nc(-c3ccccc3Cl)nc3ccccc23)CC1` [Example 262, (4-(2-(2-Chlorophenyl)quinazolin-4-yl)piperazin-1-yl)(1H-imidazol-2-yl)methanone] are above 1000 nM and “− (− indicates ≦ 10−fold)”.
The like results for `CC(C)(C)c1ccc(-c2nc(Nc3ccc(F)c(F)c3)c3ccccc3n2)cc1` [Example 117, 2-(4-tert-Butylphenyl)-N-(3,4-difluorophenyl)quinazolin-4-amine] were, in that order, below 1000 nM and “− (− indicates ≦ 10−fold)”.
The corresponding values for `CCCCN(C)c1nc(-c2ccccc2Cl)nc2ccccc12` [Example 64, N-Butyl-2-(2-chlorophenyl)-N-methylquinazolin-4-amine] are below 1000 nM and “− (− indicates ≦ 10−fold)”.
As to `O=S(=O)(NCc1nc(N2CCCC2)c2ccccc2n1)c1ccc2ccccc2c1` [Example 299, N-((4-(Pyrrolidin-1-yl)quinazolin-2-yl)methyl)naphthalene-2-sulfonamide], in test [1] (setting [3]), the EC50 was above 1000 nM. Besides, the “Selectivity, CB2 vs. CB1” value in test [2] is given as “+ (+ indicates > 10−fold)”.
The corresponding values for `Fc1ccccc1-c1nc(N2CCCC2)c2ccccc2n1` [Example 151, 2-(2-Fluorophenyl)-4-pyrrolidin-1-ylquinazoline] are below 1000 nM and “− (− indicates ≦ 10−fold)”.
The like results for `Clc1ccc(-c2nc(N3CCOCC3)c3ccccc3n2)cc1` [Example 126, 4-(2-(4-Chlorophenyl)quinazolin-4-yl)morpholine] were, in that order, below 1000 nM and “+ (+ indicates > 10−fold)”.
The corresponding values for `CC1CCCCN1c1nc(-c2ccc(Cl)cc2)nc2ccccc12` (stereo not shown) [Example 124, 2-(4-Chlorophenyl)-4-(2-methylpiperidin-1-yl)quinazoline] are above 1000 nM and “− (− indicates ≦ 10−fold)”.
As for `COC(=O)c1sccc1S(=O)(=O)NCc1nc(N2CCCC2)c2ccccc2n1` [Example 7, Methyl 3-(N-((4-(Pyrrolidin-1-yl)quinazolin-2-yl)methyl)sulfamoyl)thiophene-2-carboxylate], in test [1] (setting [3]), the EC50 is below 1000 nM. Also, in test [2], the “Selectivity, CB2 vs. CB1” value is recorded as “+ (+ indicates > 10−fold)”.
Consider `COc1cc2nc(CNS(=O)(=O)c3cccc4ccccc34)nc(N3CCCC3)c2cc1OC` [Example 307, N-((6,7-Dimethoxy-4-(pyrrolidin-1-yl)quinazolin-2-yl)methyl)naphthalene-1-sulfonamide], for which, in test [1] (setting [3]), the concentration for a half-maximal effect (EC50) is below 1000 nM. In addition, the “Selectivity, CB2 vs. CB1” value in test [2] is recorded as “− (− indicates ≦ 10−fold)”.
The compound `CC(C)OC(=O)N1CCN(c2nc(-c3ccccc3Cl)nc3ccccc23)CC1` [Example 93, Isopropyl 4-(2-(2-chlorophenyl)quinazolin-4-yl)piperazine-1-carboxylate] displayed an EC50 in test [1] (setting [4]) above 1000 nM. In addition, the “Selectivity, CB2 vs. CB1” value in test [2] is “+ (+ indicates > 10−fold)”.
For the compound `FC(F)(F)c1ccc(Cc2nc(N3CCCCC3)c3ccccc3n2)cc1` [Example 195, 4-(Piperidin-1-yl)-2-(4-(trifluoromethyl)benzyl)quinazoline], the half-maximal effective concentration (EC50) in test [1] (setting [3]) is above 1000 nM. For the same compound, the “Selectivity, CB2 vs. CB1” value in test [2] is reported as “− (− indicates ≦ 10−fold)”.
The corresponding values for `Clc1ccccc1-c1nc(N2CCSCC2)c2ccccc2n1` [Example 68, 2-(2-Chlorophenyl)-4-thiomorpholin-4-ylquinazoline] are below 1000 nM and “− (− indicates ≦ 10−fold)”.
As to `CC(C)(C)c1ccc2c(N3CCCC3)nc(Nc3cccc(Cl)c3)nc2c1` [Example 290, 7-tert-Butyl-N-(3-chlorophenyl)-4-(pyrrolidin-1-yl)quinazolin-2-amine], in test [1] (setting [3]), the EC50 was below 1000 nM. The “Selectivity, CB2 vs. CB1” value in test [2] was “+ (+ indicates > 10−fold)”.
The like results for `Fc1ccc2nc(-c3ccccc3Cl)nc(N3CCCC3)c2c1` [Example 270, 2-(2-Chlorophenyl)-6-fluoro-4-(pyrrolidin-1-yl)quinazoline] were, in that order, above 1000 nM and “− (− indicates ≦ 10−fold)”.
The like results for `CN(Cc1ccccc1)c1nc(-c2ccc(F)cc2F)nc2ccccc12` [Example 26, Benzyl[2-(2,4-difluorophenyl)quinazolin-4-yl]methylamine] were, in that order, above 1000 nM and “− (− indicates ≦ 10−fold)”.
The like results for `CN(c1ccc(C(C)(C)C)cc1)c1nc(-c2ccc(C(C)(C)C)cc2)nc2ccccc12` [Example 119, N,2-Bis(4-tert-butylphenyl)-N-methylquinazolin-4-amine] were, in that order, above 1000 nM and “− (− indicates ≦ 10−fold)”.
With `CCOC(=O)N1CCN(c2nc(-c3ccccc3Cl)nc3cccc(C)c23)CC1` [Example 255, Ethyl 4-(2-(2-chlorophenyl)-5-methylquinazolin-4-yl)piperazine-1-carboxylate], the concentration giving a half-maximal response (EC50) in test [1] (setting [3]) is below 1000 nM. Also, in test [2], the “Selectivity, CB2 vs. CB1” value is “+ (+ indicates > 10−fold)”.
The corresponding values for `FC(F)(F)Oc1ccc2nc(-c3ccccc3Cl)nc(N3CCSCC3)c2c1` [Example 204, 4-(2-(2-Chlorophenyl)-6-(trifluoromethoxy)quinazolin-4-yl)thiomorpholine] are below 1000 nM and “− (− indicates ≦ 10−fold)”.
The like results for `CCNC(=O)N1CCN(c2nc(-c3ccccc3Cl)nc3ccccc23)CC1` [Example 87, 4-(2-(2-chlorophenyl)quinazolin-4-yl)-N-ethylpiperazine-1-carboxamide] were, in that order, above 1000 nM and “− (− indicates ≦ 10−fold)”.
The corresponding values for `COc1ccc2nc(-c3ccccc3Cl)nc(N3CCSCC3)c2c1` [Example 172, 4-(2-(2-Chlorophenyl)-6-methoxyquinazolin-4-yl)thiomorpholine] are below 1000 nM and “+ (+ indicates > 10−fold)”.
Turning to `CC(C)(C)c1ccc(-c2nc(N3CCSCC3)c3ccccc3n2)cc1` [Example 114, 2-(4-tert-Butylphenyl)-4-thiomorpholin-4-ylquinazoline], in test [1] (setting [3]), the EC50 was below 1000 nM. The “Selectivity, CB2 vs. CB1” value in test [2] is recorded as “+ (+ indicates > 10−fold)”.
Regarding `CC(=O)N1CCN(c2nc(-c3ccccc3Cl)nc3cccc(C(F)(F)F)c23)CC1` [Example 240, 1-(4-(2-(2-Chlorophenyl)-5-(trifluoromethyl)quinazolin-4-yl)piperazin-1-yl)ethanone], the EC50 in test [1] (setting [3]) is below 1000 nM. Besides, the “Selectivity, CB2 vs. CB1” value in test [2] is listed as “+ (+ indicates > 10−fold)”.
Consider `Clc1ccc2c(N3CCCC3)nc(-c3ccccc3Cl)nc2c1` [Example 235, 7-Chloro-2-(2-chlorophenyl)-4-(pyrrolidin-1-yl)quinazoline], for which the EC50 in test [1] (setting [4]) was above 1000 nM. For the same compound, in test [2], the “Selectivity, CB2 vs. CB1” value is “− (− indicates ≦ 10−fold)”.
On to `Clc1ccccc1-c1nc(NCCc2ccccn2)c2ccccc2n1` [Example 191, 2-(2-Chlorophenyl)-N-(2-(pyridine-2-yl)ethyl)quinazolin-4-amine], for which the EC50 in test [1] (setting [3]) is above 1000 nM. Moreover, in test [2], the “Selectivity, CB2 vs. CB1” value is “− (− indicates ≦ 10−fold)”.
The corresponding values for `Clc1ccc2nc(-c3ccccc3Cl)nc(N3CCSCC3)c2c1` [Example 207, 4-(6-Chloro-2-(2-chlorophenyl)quinazolin-4-yl)thiomorpholine] are below 1000 nM and “− (− indicates ≦ 10−fold)”.
For `CN1CCN(c2nc(-c3ccc(OC(F)(F)F)cc3)nc3ccccc23)CC1` [Example 142, 4-(4-Methylpiperazin-1-yl)-2-(4-trifluoromethoxyphenyl)quinazoline], the EC50 in test [1] (setting [3]) was below 1000 nM. In addition, the “Selectivity, CB2 vs. CB1” value in test [2] is “− (− indicates ≦ 10−fold)”.
The like results for `CC(=O)N1CCN(c2nc(-c3ccc(F)c(F)c3)nc3ccccc23)CC1` [Example 19, 1-(4-(2-(3,4-Difluorophenyl)quinazolin-4-yl)piperazin-1-yl)ethanone] were, in that order, below 1000 nM and “+ (+ indicates > 10−fold)”.
The corresponding values for `O=S(=O)(NCc1nc(N2CCCC2)c2ccc(Cl)cc2n1)c1cccc2ccccc12` [Example 309, N-((7-Chloro-4-(pyrrolidin-1-yl)quinazolin-2-yl)methyl)naphthalene-1-sulfonamide] are below 1000 nM and “+ (+ indicates > 10−fold)”.
As for `COc1cc2nc(Oc3ccc(C(C)(C)C)cc3)nc(N3CCCC3)c2cc1OC` [Example 296, 2-(4-tert-Butylphenoxy)-6,7-dimethoxy-4-(pyrrolidin-1-yl)quinazoline], in test [1] (setting [3]), the EC50 is above 1000 nM. In addition, the “Selectivity, CB2 vs. CB1” value in test [2] is “− (− indicates ≦ 10−fold)”.
